Laboratory results taken from US20260337231A1, “METHOD FOR PRODUCING CYCLIC PEPTIDE COMPOUND” (CHUGAI SEIYAKU KABUSHIKI KAISHA, priority 2023, published 2026).

How the values were obtained:
Assay type in all cases: physicochemical
[1] = Thermogravimetry-differential thermal analysis (TG-DTA); details: 10° C./min, nitrogen
Description: The thermogravimetry-differential thermal analysis (TG-DTA) for Example 3-8, Example 3-9, Example 3-12, Example 3-13, Example 3-17, and Example 3-19 was performed under the following conditions. • Measurement apparatus: STA7200RV+AS-3T (manufactured by Hitachi High-Tech Science Corporation) • Measurement range: 30 to 350° C. • Heating rate: 10° C./min • Atmosphere: nitrogen • Measurement: The sample was weighed in an open aluminum pan and covered with a mesh to perform the measurement.

[2] = Powder X-ray diffraction measurement at each relative humidity (influence of humidity on the crystal form); details: 35.0 °C
Description: (§1) The powder X-ray diffraction measurement for Example 3-12 was performed under the following conditions to evaluate the crystal form at each relative humidity. The measurement was carried out at the time points between dropping the relative humidity to 0% and raising it to 90%: 0% (FIG. 21(A)), 10% (FIG. 21(B)), 20% (FIG. 21(C)), 50% (FIG. 21(D)), and 90% (FIG. 21(E)). • Measurement apparatus: SmartLab System, D/Tex Ultra detector, humidity generator HUM-SL (manufactured by Rigaku Corporation) • Radiation source: CuKα1 • Tube voltage: 45 kV • Tube current: 200 mA • Scanning range: 4 to 35° • Scanning speed: 5°/min • Sampling width: 0.02° • Humidity change conditions:
as §1, with “3-13” for “3-12”, “24(A)), 30%” for “21(A)), 10%”, “24(B)),” for “21(B)), 20% (FIG. 21(C)),”, “24(C)),” for “21(D)),”, “24(D)).” for “21(E)).”, “conditions: […]” for “conditions:”

[3] = Slurry conversion experiment (form A, form B and form K crystals mixed and shaken in mixed solvent); details: 25° C., 2000 rpm
Description: The powder X-ray diffraction measurement for Example 3-2, Example 3-3, Example 3-4, Example 3-5, Example 3-6, Example 3-7, Example 3-9, Example 3-16, Example 3-17, Example 3-22, Example 5-1, Example 5-2, Example 5-3, Example 5-4, Example 5-5, Example 5-6, Example 5-7, Example 5-8, and Example 5-9 was performed under the following conditions. • Measurement apparatus: D8 Discover, 2D VANTEC-500 solid state detector (manufactured by Bruker) • Radiation source: CuKα • Tube voltage and tube current: 50 kV and 1000 μA • Measurement range: 5 to 31° • Exposure time: 40 seconds
(§2) The form A crystal (3.0 mg), form B crystal (3.0 mg), and form K crystal (3.0 mg) of compound 1 were mixed, and a mixed solvent of acetone-heptane (1:1 (v/v), 0.030 mL) and one grain of glass bead were added. Using a shaker (BioShaker M⋅BR-022UP manufactured by TAITEC CORPORATION), the mixture was shaken at 25° C., 2000 rpm for 9 days, and then filtered and dried under reduced pressure to obtain a crystal (form B) of compound 1. […] It was confirmed that the form B crystal is a stable form in the mixed solvent of acetone-heptane (1:1 (v/v)).
as §2, with “(3.1” for “(3.0”, “2-propanol-heptane” for “acetone-heptane”
as §2, with “K crystal (3.1 mg) of” for “K crystal (3.0 mg) of”, “solvent of ethanol-heptane (1:1 (v/v),” for “solvent of acetone-heptane (1:1 (v/v),”, “solvent of ethanol-heptane (1:1 (v/v)).” for “solvent of acetone-heptane (1:1 (v/v)).”
as §2, with “acetone-water” for “acetone-heptane”
as §2, with “B crystal (3.1 mg), and” for “B crystal (3.0 mg), and”, “K crystal (3.1 mg) of” for “K crystal (3.0 mg) of”, “solvent of 2-propanol-water (1:1 (v/v),” for “solvent of acetone-heptane (1:1 (v/v),”, “solvent of 2-propanol-water (1:1 (v/v)).” for “solvent of acetone-heptane (1:1 (v/v)).”
The form A crystal (3.1 mg), form B crystal (3.0 mg), and form K crystal (3.1 mg) of compound 1 were mixed, and a mixed solvent of ethanol-water (1:1 (v/v), 0.030 mL) and one grain of glass bead were added. Using a shaker (BioShaker M⋅BR-022UP manufactured by TAITEC CORPORATION), the mixture was shaken at 25° C., 2000 rpm for 9 days, and then filtered and dried under reduced pressure to obtain a crystal (form B) of compound 1. […] It was confirmed that the form B crystal is a stable form in the mixed solvent of ethanol-water (1:1 (v/v)). […]

SMILES | weight reduction ([1]; crystal of Example 3-8 (from acetone/heptane)) [wt %] | weight reduction ([1]; crystal of Example 3-9 (from 2-propanol/heptane)) [wt %] | crystal form at a relative humidity of 0% [2] | stable form in slurry conversion ([3]; 2-propanol-heptane (1:1 (v/v)), 9 days) | stable form in slurry conversion ([3]; 2-propanol-water (1:1 (v/v)), 9 days) | stable form in slurry conversion ([3]; 2-propanol-water (1:4 (v/v)), 9 days) | stable form in slurry conversion ([3]; acetone-heptane (1:1 (v/v)), 9 days) | stable form in slurry conversion ([3]; acetone-water (1:1 (v/v)), 9 days) | stable form in slurry conversion ([3]; acetone-water (1:4 (v/v)), 9 days) | stable form in slurry conversion ([3]; ethanol-heptane (1:1 (v/v)), 9 days) | stable form in slurry conversion ([3]; ethanol-water (1:1 (v/v)), 9 days) | stable form in slurry conversion ([3]; ethanol-water (1:4 (v/v)), 7 days)
CCC[C@H]1C(=O)N[C@@H]([C@@H](C)CC)C(=O)N2CCC[C@H]2C(=O)N(C)[C@H]2C/C=C\CCN(C2=O)[C@@H](Cc2ccc(C(F)(F)F)cc2)C(=O)N(C)CC(=O)N[C@@H](CCc2ccc(C(F)(F)F)c(OC)c2)C(=O)N2C[C@H](OCC)C[C@H]2C(=O)N(C)C2(CCC2)C(=O)N(C)[C@@H](C2CCCC2)C(=O)N(C)[C@H](C(=O)N(C)C)CC(=O)N1C [form A] | 3 | 2 | transformed into the form J |  |  |  |  |  |  |  |  | 
CCC[C@H]1C(=O)N[C@@H]([C@@H](C)CC)C(=O)N2CCC[C@H]2C(=O)N(C)[C@H]2C/C=C\CCN(C2=O)[C@@H](Cc2ccc(C(F)(F)F)cc2)C(=O)N(C)CC(=O)N[C@@H](CCc2ccc(C(F)(F)F)c(OC)c2)C(=O)N2C[C@H](OCC)C[C@H]2C(=O)N(C)C2(CCC2)C(=O)N(C)[C@@H](C2CCCC2)C(=O)N(C)[C@H](C(=O)N(C)C)CC(=O)N1C [form B] |  |  | transformed into the form Y | a stable form | a stable form | a stable form | a stable form | a stable form | a stable form | a stable form | a stable form | a stable form
